Nine molecules from ChEMBL document CHEMBL4184231, “Selective inhibition of monoamine oxidase A by hispidol” (Bioorg Med Chem Lett, 2018) can be followed below.

The target of series [1] is T1, Amine oxidase [flavin-containing] A (Homo sapiens, UniProt P21397).
T1 sequence (P21397 whole entry): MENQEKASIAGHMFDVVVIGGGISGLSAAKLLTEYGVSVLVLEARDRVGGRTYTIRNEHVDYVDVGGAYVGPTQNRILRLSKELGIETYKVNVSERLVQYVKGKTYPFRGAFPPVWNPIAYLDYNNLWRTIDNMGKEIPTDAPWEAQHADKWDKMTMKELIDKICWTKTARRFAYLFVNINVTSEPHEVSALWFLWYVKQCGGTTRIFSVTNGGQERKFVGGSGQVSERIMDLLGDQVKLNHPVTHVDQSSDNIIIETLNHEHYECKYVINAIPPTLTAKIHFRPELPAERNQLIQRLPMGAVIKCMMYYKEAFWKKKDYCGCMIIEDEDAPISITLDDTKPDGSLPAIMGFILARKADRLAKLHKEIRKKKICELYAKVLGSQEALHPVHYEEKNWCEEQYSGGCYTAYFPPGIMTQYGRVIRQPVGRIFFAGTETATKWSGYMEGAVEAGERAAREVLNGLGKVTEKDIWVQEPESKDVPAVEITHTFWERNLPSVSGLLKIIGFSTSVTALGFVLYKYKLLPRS
Briefly: Competitive inhibition of human recombinant MAOA using 0.006 to […] kynuramine as substrate preincubated for 30 mins followed by substrate addition by Lineweaver-Burk plot.

In series [2] the target is T2, Amine oxidase [flavin-containing] B (Homo sapiens, UniProt P27338).
T2 sequence (P27338 whole entry): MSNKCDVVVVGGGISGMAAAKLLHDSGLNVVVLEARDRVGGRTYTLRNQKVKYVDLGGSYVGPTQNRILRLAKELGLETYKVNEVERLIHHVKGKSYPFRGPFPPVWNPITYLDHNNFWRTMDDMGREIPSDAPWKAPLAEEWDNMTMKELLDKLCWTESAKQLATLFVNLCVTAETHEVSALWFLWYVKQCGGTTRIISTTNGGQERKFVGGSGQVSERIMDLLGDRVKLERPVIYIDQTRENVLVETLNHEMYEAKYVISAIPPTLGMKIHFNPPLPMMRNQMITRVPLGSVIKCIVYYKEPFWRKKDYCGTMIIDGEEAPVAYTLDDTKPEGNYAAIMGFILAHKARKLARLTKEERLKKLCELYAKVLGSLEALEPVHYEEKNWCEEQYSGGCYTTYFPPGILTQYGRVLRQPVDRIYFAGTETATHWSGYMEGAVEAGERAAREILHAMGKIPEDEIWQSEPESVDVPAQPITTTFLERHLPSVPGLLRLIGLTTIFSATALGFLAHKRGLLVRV
As to the kind of experiment: Inhibition of human recombinant MAOB assessed as residual enzyme activity at 5 uM pre-incubated for 30 mins followed by 0.06 mM benzylamine substrate addition.

The target in series [3] is T2, Amine oxidase [flavin-containing] B. Briefly: Reversible inhibition of human recombinant MAOB assessed as residual enzyme activity at 5 uM pre-incubated with enzyme for 30 mins followed by dialysis with pH 7.2 sodium phosphate buffer for 6 hrs followed by 0.06 mM benzylamine substrate addition. The conditions noted are these: pH 7.2, 6 h.
The target of series [4] is T1, Amine oxidase [flavin-containing] A. Briefly: Inhibition of human recombinant MAOA using kynuramine as substrate preincubated for 30 mins followed by substrate addition.
For series [5] the target is unchanged. As to the kind of experiment: Time dependent inhibition of human recombinant MAOA using kynuramine as substrate preincubated for up to 30 mins followed by substrate addition.
The target is the same in series [6]. Briefly: Inhibition of human recombinant MAOA assessed as residual enzyme activity at 0.5 uM pre-incubated for 30 mins followed by 0.06 mM kynuramine substrate addition. The conditions noted are these: read-out: INH.
The target is the same in series [7]. As to the kind of experiment: Reversible inhibition of human recombinant MAOA assessed as residual enzyme activity at 0.5 uM pre-incubated with enzyme for 30 mins followed by dialysis with pH 7.2 sodium phosphate buffer for 6 hrs followed by 0.06 mM kynuramine substrate addition. The conditions noted are these: read-out: INH.
Series [8] has the same target. As to the kind of experiment: Inhibition of human recombinant MAOA assessed as residual enzyme activity at 0.01 uM pre-incubated for 30 mins followed by 0.06 mM kynuramine substrate addition. As to conditions: read-out: Activity; call rule not given here.
Series [9] shares this target. Briefly: Irreversible inhibition of human recombinant MAOA assessed as residual enzyme activity at 0.01 uM pre-incubated with enzyme for 30 mins followed by dialysis with pH 7.2 sodium phosphate buffer for 6 hrs followed by 0.06 mM kynuramine substrate addition. The conditions noted are these: read-out: Activity.
Series [10] has as its target T2, Amine oxidase [flavin-containing] B. Briefly: Inhibition of human recombinant MAOB assessed as residual enzyme activity at 2 time IC50 pre-incubated for 30 mins followed by 0.06 mM benzylamine substrate addition.
Series [11] shares this target. Briefly: Reversible inhibition of human recombinant MAOB assessed as residual enzyme activity at 2 times IC50 pre-incubated with enzyme for 30 mins followed by dialysis with pH 7.2 sodium phosphate buffer for 6 hrs followed by 0.06 mM benzylamine substrate addition. The conditions noted are these: pH 7.2, 6 h.
The target is the same in series [12]. Briefly: Inhibition of human recombinant MAOB using benzylamine as substrate preincubated for 30 mins followed by substrate addition.
The species named for another series is Homo sapiens. As to the kind of experiment: Selectivity index, ratio of IC50 for human recombinant MAOB to IC50 for human recombinant MAOA.
The target of series [13] is T2, Amine oxidase [flavin-containing] B. Briefly: Inhibition of human recombinant MAOB at 80 uM using benzylamine as substrate preincubated for 30 mins followed by substrate addition.
The target of series [14] is T1, Amine oxidase [flavin-containing] A. Briefly: Reversible inhibition of human recombinant MAOA assessed as residual enzyme activity at 2 uM pre-incubated with enzyme for 30 mins followed by dialysis with pH 7.2 sodium phosphate buffer for 6 hrs followed by 0.06 mM kynuramine substrate addition. The conditions noted are these: read-out: Activity.
Series [15] has the same target. Briefly: Inhibition of human recombinant MAOA assessed as residual enzyme activity at 2 uM pre-incubated for 30 mins followed by 0.06 mM kynuramine substrate addition. The conditions noted are these: read-out: Activity.

The Ki is a measure of affinity in units of concentration, obtained from inhibition or displacement. Broadly, the IC50 is the concentration at which inhibition is half-maximal. Regarding `O=C1/C(=C/c2ccc(O)cc2)Oc2cc(O)ccc21`, the Ki in series [1] was found to be 100 nM. Besides, the results for the Activity in series [2] and in series [3] were 87.5% and 28%, respectively. Moreover, the IC50 in [4] amounted to 260 nM. In addition, the TDI result in [5] was “Not Active”. Besides, the figures for the activity at 0.5 µM in series [6] and in series [7] were 29.8% and 83.7%, respectively.

As for `COc1cc(O)c2c(=O)oc3cc(O)cc(C)c3c2c1`, the IC50 in series [4] is 1710 nM.

In the case of `COc1ccc(-c2cc(=O)c3c(O)cc(O)cc3o2)cc1` [ACACETIN], in series [4], the IC50 is 190 nM.

As for `O=c1cc(-c2ccc(O)cc2)oc2cc(O)cc(O)c12` [APIGENIN], the IC50 in [4] came out at 1550 nM.

Take `C#CCN(C)CCCOc1ccc(Cl)cc1Cl` [CLORGILINE]: the activity at 0.01 µM is 18.3% in [8] and 17.3% in [9].

Turning to `CC(C)=CC(=O)O[C@H]1Cc2cc3ccc(=O)oc3cc2OC1(C)C` [DECURSIN], in series [4], the half-maximal inhibitory concentration (IC50) was found to be 1760 nM.

On to `NCCNC(=O)c1ccc(Cl)cn1` [LAZABEMIDE], for which the Activity is given as 72.9% in series [10] and 35% in [11].

What is called inhibition is the relative decrease from the control value, in per cent. As for `O=C1/C(=C/c2ccc(O)c(O)c2)Oc2cc(O)ccc21` [SULFURETIN], the half-maximal inhibitory concentration (IC50) in [12] is over 80 µM; in series [4], 4160 nM. Further, the TDI result in series [5] was “Not Active”. In addition, the Ratio IC50 in the series filed under Homo sapiens is over 19.2. Further, the inhibition at 80 µM in [13] was determined as 20.8%.

Regarding `Cc1cccc(N2CC(CO)OC2=O)c1` (configuration not stated) [TOLOXATONE], the activity at 2 µM is 30.7% in series [14] and 75.4% in [15].
